From patent publication EP3287466B1, “AMORPHOUS PICEATANNOL 3'-O-GLUCOSIDE AND PREPARATION METHOD THEREOF” (KPC Pharmaceuticals, Inc., priority 2015, dated 2016)
≈ marks a conversion by molar mass, not a printed value.

Assay: Solubility test (shaken 30 min to saturation, content measured by HPLC)
Assay type: physicochemical
Details: shaken for 30min to saturation; for piceatannol 3'-O-glucoside solubility, 0.9% aqueous solution of Sodium chloride: in 0.9wt% aqueous solution of sodium chloride
Method: Appropriate amounts of samples 1 to 4 and raw material sample were taken. Water, 0.9wt% aqueous solution of sodium chloride were added, respectively, and shaken for 30min, respectively, to dissolve the sample to saturation. The above solutions were taken and subjected to HPLC to measure the content of piceatannol 3'-O-glucoside in the solutions. Table 1. Comparison of the results of piceatannol 3'-O-glucoside solubility (mg/ml)

Row | SMILES | solubility at 0.5 h (water, in water, read-out: piceatannol 3'-O-glucoside solubility, Water) [mg/mL] | piceatannol 3'-O-glucoside solubility, 0.9% aqueous solution of Sodium chloride (30 min) [mg/mL] | piceatannol 3'-O-glucoside solubility, Water (in water, 30 min) [mg/mL]
1 | OC[C@H]1O[C@@H](Oc2cc(/C=C/c3cc(O)cc(O)c3)ccc2O)[C@H](O)[C@@H](O)[C@@H]1O [Sample 3, piceatannol 3'-O-glucoside] | 15.2 (≈ 37.5 mM) |  | 
2 | OC[C@H]1O[C@@H](Oc2cc(/C=C/c3cc(O)cc(O)c3)ccc2O)[C@H](O)[C@@H](O)[C@@H]1O [Sample 4, piceatannol 3'-O-glucoside] |  | 14.31 | 14.45
3 | OC[C@H]1O[C@@H](Oc2cc(/C=C/c3cc(O)cc(O)c3)ccc2O)[C@H](O)[C@@H](O)[C@@H]1O [Sample 2, piceatannol 3'-O-glucoside] |  | 14.19 | 
4 | OC[C@H]1O[C@@H](Oc2cc(/C=C/c3cc(O)cc(O)c3)ccc2O)[C@H](O)[C@@H](O)[C@@H]1O [Sample 1, piceatannol 3'-O-glucoside] |  | 14.36 | 
5 | OC[C@H]1O[C@@H](Oc2cc(/C=C/c3cc(O)cc(O)c3)ccc2O)[C@H](O)[C@@H](O)[C@@H]1O [Raw material sample, piceatannol 3'-O-glucoside] |  | 4.67 | 
